Laboratory results reported in US20220257557A1, “PHARMACEUTICAL COMPOSITION FOR PREVENTING OR TREATING NEUROLOGICAL DISEASES” (GLACEUM INC., priority 2019, published 2022).

What was measured:
PON2 (Paraoxonase 2) = test: Relative expression level of PON2 in liver of DIO mice (Western blot, relative to actin); assay type: in vivo, C57BL/6J DIO mice; details: 100 mg/kg orally once daily for 6 weeks, 60% fat diet
Procedure: 14-Week-old C57BL/6J DIO (Diet Induced Obesity) mice (The Jackson Laboratory, USA) were purchased. The normal control group was fed a 10% fat diet for 3 weeks, and the DIO control group was fed a 60% fat diet for 3 weeks. In addition, the Formula III-1 compound-administered group was fed a 60% fat diet for 3 weeks, and then 100 mg/kg of the compound of Formula III-1 was orally administered thereto once daily for 6 weeks.
The mice of the normal control group, the DIO control group and the Formula III-1 compound-administered group were euthanized, and the liver tissues were extracted therefrom, washed with a PBS solution containing PIC (protease inhibitor cocktail), sectioned to a size of 0.2 to 0.5 g, and stored at −196° C. until the experiment. […]
A lysis buffer (CelLytic™ Cell Lysis Reagent, Sigma-Aldrich Corp.) containing a protease inhibitor cocktail was added to the liver tissue which was then minced using a homogenizer, incubated at 0° C. for 30 minutes, and centrifuged at 14,000 rpm for 15 minutes at 4° C. to obtain the supernatant. The protein concentration was quantified using the Bradford method, and then the same amount of protein was separated by electrophoresis on 10% SDS-PAGE and transferred to a polyvinylidene difluoride membrane (PVDF; Pall Corporation, USA) in glycine-methanol buffer. […]

BV2 cells = test: IL-1β, IL-6 and TNF-α mRNA expression after LPS (RT-PCR); assay type: cell-based; details: 3 h pretreatment (Table 3 amounts), LPS 1 μg/ml 6 h
Summary of the method: (§1)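 Cells pretreated with test compounds (cytotoxicity checked by MTT), then stimulated with 1 μg/ml LPS for 6 h. IL-1β, IL-6 and TNF-α mRNA levels measured by RT-PCR.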

RAW264.7 cells = test: as above; assay type: cell-based; details: 3 h pretreatment (Table 3 amounts), LPS 1 μg/ml 6 h
Summary of the method: as §1

## CCOc1ccc(C2COc3c(ccc4c3CCC(C)(C)O4)C2)c(O)c1 (centres unmarked) [Formula III-1, 2-(8,8-dimethyl-2,3,4,8,9,10-hexahydropyrano[2,3-f]chromen-3-yl)-5-ethoxyphenol]
PON2 (Paraoxonase 2); FIG. 1
  expression level of PON2 compared with DIO control group: higher
PON2 (Paraoxonase 2); FIG. 1b
  expression level of PON2 compared with normal control group: higher
BV2 cells
  mRNA expression level of IL-1β: concentration-dependently decreased
  mRNA expression level of IL-6: concentration-dependently decreased
  mRNA expression level of TNF-α: concentration-dependently decreased
RAW264.7 cells
  mRNA expression level of IL-1β: concentration-dependently decreased
  mRNA expression level of IL-6: concentration-dependently decreased
  mRNA expression level of TNF-α: concentration-dependently decreased
